Test results published in paper PMC3660563, “High-Throughput Screening for GPR119 Modulators Identifies a Novel Compound with Anti-Diabetic Efficacy in db/db Mice” (PLoS ONE, 2013).
Blank lines part the entries; values can stand above or below the molecule they belong to.

What was measured:
MIN6 cells = experiment: Insulin secretion assay in MIN6 cells; assay type: cell-based, mouse; settings: for glucose-stimulated insulin secretion vs DMSO control: 16.8 mM glucose, 1 h, MW1219 at 15 µM and 50 µM (P<0.05), OEA at 10 µM (P<0.01)
Description: (§1) HEK293 cells stably transfected with a human GPR119 vector and a cAMP response element-driven luciferase reporter plasmid (HEK293-hGPR119 cells) and HEK293 cells transfected only with a cAMP response element-driven luciferase reporter plasmid (control HEK293 cells) were cultured in Dulbecco’s modified Eagle medium (DMEM) (Invitrogen, Carlsbad, CA, USA) supplemented with 10% fetal bovine serum (FBS), 4.5 g/l glucose, 100 units/ml penicillin and 100 µg/ml streptomycin at 37°C in 5% CO2. MIN6 cells were maintained in DMEM containing 15% FBS, 4.5 g/l glucose, 100 units/ml penicillin and 100 µg/ml streptomycin at 37°C in 5% CO2. GLUTag cells were maintained in DMEM containing 10% FBS, 1 g/l glucose, 100 units/ml penicillin and 100 µg/ml streptomycin at 37°C in 5% CO2.
Insulin-secreting MIN6 cells were plated in 96-well plates (20,000 cells per well) for 2 days. On the day of experiment, culture medium was aspirated and cells were washed twice with KRBH buffer. Cells were then placed at 37°C for 30 min in KRBH containing 2.8 mM glucose. Test compounds were dissolved in either 2.8 or 16.8 mM glucose medium and added to cells for 1 h. The supernatants were collected by centrifugation at 800×g for insulin measurements. Insulin content in the supernatant was determined using an insulin ELISA kit from Linco Research Laboratory (Billerica, MA, USA).
(§2) MIN6 and GLUTag cells were cultured as described above. siRNA targeting murine GPR119 coding sequences (Forward: 5′-[…]-3′, Reverse: 5′-[…]-3′) was purchased from GenePharma company (Shanghai, China). Transfection was performed using siRNA and Lipofectamine 2000 (Invitrogen, Burlington, ON, Canada) as instructed by the manufacturer. After 36 h, knockdown efficiency of siRNA was quantified by real-time RT-PCR, and cells were used for secretion experiments.

db/db mice [1] = experiment: Chronic oral treatment of diabetic db/db mice; assay type: in vivo; settings: for inhibition of glycemic excursion, oral glucose tolerance test, vs vehicle: glucose 3 g/kg; for food intake and body weight: 6-week once-daily oral treatment
Description: Animal experimentation was conducted in accordance with the regulations adopted by the Animal Care and Use Committee, Shanghai Institute of Materia Medica, Chinese Academy of Sciences (approval number: SIMM-2012-07-WMW-04). Male C57BL/KsJ db/db mice (Model Animal Research Center of Nanjing University, Nanjing, China) were housed in a temperature-controlled room (22±2°C), with a light/dark cycle of 12 h. At 6 weeks of age, mice were randomly assigned to chronic treatments. The experimental groups and respective doses of compounds were as follows: (1) 0.5% w/v sodium carboxyl methyl cellulose (CMC), (2) 10 mg/kg AR-231453, (3) 1 mg/kg sitagliptin (Beijing Huikang Boyuan Chemical Technology Co., Ltd., Beijing, China), (4) 10 mg/kg AR-231453 plus 1 mg/kg sitagliptin, (5) 100 mg/kg MW1219, and (6) 100 mg/kg MW1219 plus 1 mg/kg sitagliptin. Each regimen was administered once daily by oral gavaging for 6 weeks. Body weight and food intake were recorded every other day and fasting glucose levels measured every week. Oral glucose tolerance test was performed in overnight-fasting mice every other week. After six weeks of treatment, HbA1c were quantified, plasma insulin and GLP-1 contents were measured using respective ELISA kit. For oral glucose tolerance test, overnight fasting mice (n = 6/treatment) were given compounds orally at desired doses and after 30 min, an oral glucose bonus (3 g/kg) was delivered. Plasma glucose levels were determined at desired time points over a 2-h period using blood collected from the tail vein. For circulating GLP-1 analysis, compounds were administered orally to fasting animals followed by an oral glucose bolus (3 g/kg) 30 min later. Blood was drawn 2 min thereafter in Eppendorf tubes containing EDTA and a DPP-4 inhibitor. Plasma samples were obtained via centrifugation and assayed for active GLP-1 by the ELISA kit. Blood was collected again after 20 min to determine insulin levels.

control HEK293 cells [2] = experiment: Reporter gene assay in control HEK293 cells (no GPR119); assay type: cell-based
Description: as §1
HEK293-hGPR119 cells or control HEK293 cells were seeded onto 384-well plates with a density of 16,000 cells per well. At the time of assaying, AR-231453 or test compounds dissolved in DMSO were added. After 42 h of incubation at 37°C and 5% CO2 in a cell culture incubator, cells were lysed and quantified for luciferase activity using the Steady-Glo luciferase assay system (Promega, Madison, WI, USA) according to manufacturer’s protocol. […] Luciferase signals were determined with EnVision (PerkinElmer, Boston, MA, USA).

human GPR119 [3] = biological target: T1, human GPR119 (Homo sapiens, UniProt Q8TDV5); experiment: cAMP accumulation assay (HTRF) in HEK293-hGPR119 cells; assay type: cell-based
T1 construct: expressed in transfected cells
T1 sequence (Q8TDV5 1-335): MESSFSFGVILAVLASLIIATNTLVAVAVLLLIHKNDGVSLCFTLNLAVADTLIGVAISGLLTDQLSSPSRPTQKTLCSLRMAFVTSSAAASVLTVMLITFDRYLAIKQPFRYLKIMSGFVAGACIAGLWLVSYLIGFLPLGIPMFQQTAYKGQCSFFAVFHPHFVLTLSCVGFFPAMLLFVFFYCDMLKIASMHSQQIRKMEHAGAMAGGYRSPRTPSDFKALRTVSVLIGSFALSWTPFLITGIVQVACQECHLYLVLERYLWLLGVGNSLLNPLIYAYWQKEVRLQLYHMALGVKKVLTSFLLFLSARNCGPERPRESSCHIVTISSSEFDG
Description: as §1
cAMP accumulation was measured using HTRF-cAMP dynamic kit (Cisbio International, Gif sur Yvette Cedex, France) according to manufacturer's instructions. Briefly, HEK293-hGPR119 cells were suspended in assay buffer (DMEM, 1 mM 3-isobutyl-1-methylxanthine) and transferred to 384-well microplates (Greiner Bio-One, Frickenhausen, Germany) at a density of 16,000 cells/well. Plates were incubated for 30 min at 37°C before adding test compounds. After treatment for 30 min at 37°C, the reactions were stopped by addition of lysis buffer containing HTRF reagents. Plates were then incubated for 60 min at room temperature, and time-resolved FRET signals were measured after excitation at 320 nm. Both the emission signal from the europium cryptate-labeled anti-cAMP antibody (620 nm) and the FRET signal resulting from the labeled cAMP-d2 (665 nm) were detected by EnVision (PerkinElmer).

human GPR119 [4] = biological target: T1, human GPR119; experiment: Reporter gene assay (CRE-luciferase) in HEK293-hGPR119 cells; assay type: cell-based; settings: for allosteric modulation of OEA potency: compound added to OEA concentration response
Description: as §1
HEK293-hGPR119 cells or control HEK293 cells were seeded onto 384-well plates with a density of 16,000 cells per well. At the time of assaying, AR-231453 or test compounds dissolved in DMSO were added. After 42 h of incubation at 37°C and 5% CO2 in a cell culture incubator, cells were lysed and quantified for luciferase activity using the Steady-Glo luciferase assay system (Promega, Madison, WI, USA) according to manufacturer’s protocol. For allosteric activity studies, test compounds were 5-fold serially diluted and added to AR-231453 or OEA concentration response reaction. Luciferase signals were determined with EnVision (PerkinElmer, Boston, MA, USA).

GLUTag cells = experiment: GLP-1 release assay in GLUTag cells; assay type: cell-based, murine; settings: for GLP-1 release, low glucose medium: 2.8 mM glucose
Description: as §1
GLUTag cells were plated in 24-well plates on day 1 in low glucose DMEM supplemented with 10% FBS. Culture medium was replaced with DMEM (2.8 mM glucose) supplemented with 10% FBS 24 h before analysis of GLP-1 release. On the day of experiment, cells were washed twice with PBS and incubated with different compounds at desired concentrations in serum-free DMEM with 2.8 mM or 16.8 mM glucose for 1 h at 37°C and 5% CO2. The supernatants were collected by centrifugation for 3 min. GLP-1 in the supernatant was detected by a GLP-1 ELISA kit (Linco Research Laboratory).
as §2

control HEK293 cells [5] = experiment: cAMP accumulation assay in control HEK293 cells; assay type: cell-based
Description: as §1
cAMP accumulation was measured using HTRF-cAMP dynamic kit (Cisbio International, Gif sur Yvette Cedex, France) according to manufacturer's instructions. […] Plates were then incubated for 60 min at room temperature, and time-resolved FRET signals were measured after excitation at 320 nm. Both the emission signal from the europium cryptate-labeled anti-cAMP antibody (620 nm) and the FRET signal resulting from the labeled cAMP-d2 (665 nm) were detected by EnVision (PerkinElmer).

db/db mice [6] = system: db/db mice; parameters: method as in the literature (reference number not given); settings: ref the literature (reference number not given); cited from earlier work
[7] = 100 mg/kg MW1219 plus 1 mg/kg sitagliptin, oral, once daily, 6 weeks
[8] = MW1219 100 mg/kg, sitagliptin 1 mg/kg
[9] = HEK293-hGPR119 cells, 42 h incubation, read-out: EC50, luciferase expression
[10] = reporter gene and cAMP accumulation assays
[11] = MW1219 0 μM (Table S3), read-out: EC50 of OEA
[12] = in presence of MW1219 1 μM, read-out: EC50 of OEA
[13] = in presence of MW1219 10 μM, read-out: EC50 of OEA

efficacy, cAMP accumulation, relative to forskolin (human GPR119 [3]; 50 µM MW1219, HEK293-hGPR119 cells): about 40%
efficacy relative to forskolin in the reporter gene assay (human GPR119 [4]; HEK293-hGPR119 cells): same level of efficacy as forskolin
EC50 (human GPR119 [4]; [9]): 0.96 ± 0.08 µM
allosteric modulation of OEA potency (human GPR119 [4]; [10]): not PAM for OEA
SMILES: CCOC(=O)c1ccc2oc3ccc(O)cc3c(=O)c2c1 [MW1219]
insulin secretion after GPR119 siRNA knockdown (MIN6 cells; 15 µM MW1219, GPR119 siRNA-treated MIN6 cells): suppressed by siRNA
insulin release under low glucose (MIN6 cells; 2.8 mM glucose): no effect
glucose-stimulated insulin secretion vs DMSO control (MIN6 cells): elevated insulin significantly
circulating GLP-1 levels (db/db mice [1]; 100 mg/kg MW1219, 6 weeks, 2 min after oral glucose 3 g/kg): not elevated
insulin response to a glucose bolus (db/db mice [1]; 100 mg/kg MW1219, 6 weeks, 20 min after oral glucose 3 g/kg): notably more pronounced than that of controls
inhibition of glycemic excursion, oral glucose tolerance test, vs vehicle (db/db mice [1]; 100 mg/kg MW1219, after 6 weeks, P<0.05): 8.6%
reduction of fasting blood glucose vs control (db/db mice [1]; 100 mg/kg MW1219, oral, once daily, 6 weeks): 16%
HbA1c decrease compared with the control (db/db mice [1]; 100 mg/kg MW1219, oral, once daily, 6 weeks, P<0.05): 0.67%
inhibition of glycemic excursion, oral glucose tolerance test, vs vehicle (db/db mice [1]; 100 mg/kg MW1219 plus 1 mg/kg sitagliptin, after 6 weeks, P<0.001): 18.6%
HbA1c change (db/db mice [1]; [7]): no difference
fasting blood glucose vs mice that received sitagliptin alone (db/db mice [1]; [7]): significantly lower
reduction of fasting blood glucose vs control (db/db mice [1]; [7]): 29%
food intake and body weight (db/db mice [1]; [8]): neither food intake inhibition nor weight loss
fasting plasma glucose levels and glucose tolerance, pilot dose-response studies (db/db mice [1]; MW1219 100 mg/kg, data not shown): improved both fasting plasma glucose levels and glucose tolerance
activity on luciferase expression in the absence of GPR119 (control HEK293 cells [2]): did not show any activity
efficacy compared to forskolin (control HEK293 cells [2]; Figure 2C): 10%
GLP-1 release after GPR119 siRNA knockdown (GLUTag cells; 20 µM and 50 µM MW1219, siRNA-treated GLUTag cells): indistinguishable from the medium control
GLP-1 release, low glucose medium (GLUTag cells; 1 h): Neither MW1219 nor OEA exhibited any effect
GLP-1 released to supernatant, high glucose (GLUTag cells; 16.8 mM glucose, 1 h): elevated dose-dependently
cAMP increase in control cells (control HEK293 cells [5]): had no influence

EC50 (human GPR119 [3]; OEA 0 μM (Table S2), read-out: EC50 of AR-231453): 0.00119 ± 0.00016 µM
allosteric modulation of OEA potency (human GPR119 [4]; [10]): without affecting its potency
SMILES: CC(C)c1noc(C2CCN(c3ncnc(Nc4ccc(S(C)(=O)=O)cc4F)c3[N+](=O)[O-])CC2)n1 [AR-231453]
feeding and weight gain (db/db mice [1]; AR-231453 in combination with sitagliptin): did not induce noticeable effects
reduction of food intake (db/db mice [6]): only at very high doses

EC50 (human GPR119 [3]; [11]): 1.69 ± 0.17 µM
EC50 (human GPR119 [3]; [12]): 1.83 ± 0.24 µM
EC50 (human GPR119 [3]; [13]): 1.41 ± 0.11 µM
efficacy on GPR119 (human GPR119 [4]; 1 µM OEA, HTS luciferase assay): 15%
EC50 (human GPR119 [4]; AR-231453 0 nM (Table S1), read-out: EC50 of OEA): 2.81 ± 0.21 µM
EC50 (human GPR119 [4]; [9]): 2.78 ± 0.18 µM
EC50 (human GPR119 [4]; [11]): 2.89 ± 0.61 µM
EC50 (human GPR119 [4]; [12]): 3.09 ± 0.68 µM
EC50 (human GPR119 [4]; [13]): 2.56 ± 0.47 µM
allosteric modulation of AR-231453 potency (human GPR119 [4]; reporter gene and cAMP accumulation assays, compound added to AR-231453 concentration response): did not alter the potency of AR-231453
SMILES: CCCCCCCC/C=C\CCCCCCCC(=O)NCCO [OEA, oleoylethanolamide]
glucose-stimulated insulin secretion vs DMSO control (MIN6 cells): elevated insulin significantly
GLP-1 release, low glucose medium (GLUTag cells; 1 h): Neither MW1219 nor OEA exhibited any effect

SMILES: N[C@@H](CC(=O)N1CCn2c(nnc2C(F)(F)F)C1)Cc1cc(F)c(F)cc1F [sitagliptin, reference compound]
HbA1c change (db/db mice [1]; 1 mg/kg sitagliptin, oral, once daily, 6 weeks): no difference
food intake and body weight (db/db mice [1]; [8]): failed to suppress food intake and decrease body weight
plasma GLP-1 levels (db/db mice [1]; sitagliptin 1 mg/kg): raised plasma GLP-1 levels
